# According to PubChem BioAssay AID2060902 (Molecular Pharmacology Branch, DTP, NCI, 2025):
# “And” between values parts separate entries of the source, which are not always exact repeats. Equal entries are not always repeated.
# Tested on: 485368-065-R3-J5-PDC spheroids with HUVEC/MSC, viability
# Assay: Anticancer human tumor 485368-065-R3-J5-PDC patient-derived pancreatic carcinoma cell line growth inhibition [RAS]
# Conditions: for viability, T/C: stronger effect = lower value
# Text: RAS pathway inhibitors in Combinations in Complex Spheroids
# A high-throughput screen of multi-cell type tumor spheroids was designed to identify active combinations of RAS pathway inhibitors and targeted small molecules. Complex spheroids include a stromal component modeled by human endothelial cells (HUVEC) and fibroblasts modeled by human mesenchymal stem cells (MSCs). The concentration ranges selected for each drug and investigational agent were based upon clinically achievable concentrations if the clinical Cmax of the agent was known.
# Compounds. The drugs and investigational agents: abemaciclib (NSC768073), cobimetinib (NSC768068), divarasib (GDC6063, NSC841802), docetaxel (NSC628503), GDC-1971 (RLY-1971, NSC841576), gemcitabine (NSC613327), inavolisib (NSC800729), ipatasertib (NSC767898), KB-0742 (NSC834161), MRTX-1133 (NSC836407), osimertinib (NSC779217), RMC-4630 (NSC839698), RMC-6236 (NSC851965), RMC-6291 (NSC852671), Ro-3306 (NSC812927), sapanisertib (NSC764658), SN-38 (NSC673596), staurosporine (NSC755774), SY5609 (NSC837396), and tovorafenib (DAY101, NSC766906), were obtained from the National Cancer Institute (NCI) Developmental Therapeutics Program Chemical Repository. The FDA-approved anticancer drug set is available from the NCI Developmental Therapeutics Program. […] The stock solutions were prepared in dimethyl sulfoxide (DMSO, Sigma-Aldrich, St. Louis, MO, cat. D2650) at 800-fold the tested concentration and stored at -70 degrees C prior to their use. All drugs and investigational agents were tested over a range starting from a high concentration at or near the clinical Cmax and decreasing in half-log increments. If the clinical Cmax for an agent had not been determined, the highest concentration tested was 10 microM.
# Cell Culture. All cells were maintained in an incubator at 37 degrees C and 5% CO2 with 95% humidity. The PDC lines were cultured according to standard operating procedures established by the NCI PDMR. All PDCs were thawed and cultured in Matrigel-coated flasks prepared with a working solution of 1X Ham's F-12 nutrient mix, without supplementation (Invitrogen, Waltham, MA, cat. 11765054), 100 U/mL penicillin-streptomycin (Invitrogen, cat. 15140122), and 2.5% Matrigel (Corning Inc., Corning, NY, cat. 354248) for the first three passages. The 362531-283-R-J2-PDC and 782815-120-R-J1-PDC lines were cultured in 6C/Colon 1B media, which includes advanced DMEM/F-12 (Thermo Fisher Scientific, cat. 12634028), 10 mM HEPES (Thermo Fisher Scientific, cat. 15630080), 1X GlutaMAX supplement (Thermo Fisher Scientific, cat. 35050061), 0.1 mg/mL primocin (InvivoGen, San Diego, CA, cat. ant-pm-2), 10% defined fetal bovine serum, heat inactivated (HyClone Laboratories Inc., Logan, UT, cat. SH30070.03HI), 50% L-WRN conditioned media (ATCC, cat. CRL-3276), 1.25 mM N-Acetyl-L-cysteine (Sigma-Aldrich, cat. A9165), 10 mM nicotinamide (Sigma-Aldrich, cat. N0636), 1X B-27 supplement (Thermo Fisher Scientific, cat. 17504044), 1X N-2 supplement (Thermo Fisher Scientific, cat. 17502048), 50 ng/mL human EGF (Thermo Fisher Scientific, cat. PHG0311), and 10 microM Y-27632 dihydrochloride (Tocris Bioscience, cat. 1254). The K12877-001-R-J1-PDC line was cultured in 6I media, which includes all 6C/Colon 1B media plus 10 ng/mL human FGF-10 (PeproTech, cat. 100-26), 1 ng/mL human FGF-2 (PeproTech, cat. 100-18B), 1 µM prostaglandin E2 (Tocris Bioscience, cat. 2296), […] hydrocortisone (Sigma-Aldrich, cat. H4001), and […] bovine insulin (Sigma-Aldrich, cat. I6634). The K86415-001-R-J1-PDC line was cultured in 6D media, which includes all 6C/Colon 1B media components minus the L-WRN conditioned media. The 485176-168-R4-J1-PDC was cultured in PANC media, which includes all 6C/Colon 1B media plus 100 ng/mL human FGF-10 (PeproTech, cat. 100-26), 500 nM SB-431542 (Selleckchem, cat. S1067), and 10 nM gastrin (Tocris Bioscience, cat. 3006). […]
# 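Note: spheroids exposed to agents for seven days before readout.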
structure (smiles),measurement,setting,value
CC(=O)OC12COC1CC(O)C1(C)C(=O)C(O)C3=C(C)C(OC(=O)C(O)C(NC(=O)OC(C)(C)C)c4ccccc4)CC(O)(C(OC(=O)c4ccccc4)C21)C3(C)C (stereo not given),"viability, T/C",compound 0.0316 µM,16.4% [middle of 4 runs]
same,"viability, T/C",compound 0.1 µM,15.4% [middle of 4 runs]
same,"viability, T/C",compound 0.316 µM,14% [middle of 4 runs]
same,"viability, T/C",compound 1 µM,16.1% [middle of 4 runs]
same,"viability, T/C",compound 3.16 µM,19.1% [middle of 4 runs]
same,"viability, T/C",compound 10 µM,29.6% [middle of 4 runs]
same,IC50,curve of compound,< 31.6 nM
CC(C)NCC(C(=O)N1CCN(c2ncnc3c2C(C)CC3O)CC1)c1ccc(Cl)cc1 (stereo not given),"viability, T/C",compound 0.0316 µM,104% and 101% (2×) and 98.3%
same,"viability, T/C",compound 0.1 µM,100% [middle of 4 runs]
same,"viability, T/C",compound 0.316 µM,94.8% [middle of 4 runs]
same,"viability, T/C",compound 1 µM,86.2% [middle of 4 runs]
same,"viability, T/C",compound 3.16 µM,77.1% [middle of 4 runs]
same,"viability, T/C",compound 10 µM,52.3% [middle of 4 runs]
same,IC50,curve of compound,> 10000 nM and 8610 nM
CC1(O)CCCC1n1c(=O)c(C(F)F)cc2cnc(NC3CCN(S(C)(=O)=O)CC3)nc21 (stereo not given),"viability, T/C",compound 0.0316 µM,104% [middle of 4 runs]
same,"viability, T/C",compound 0.1 µM,74% [middle of 4 runs]
same,"viability, T/C",compound 0.316 µM,50.7% [middle of 4 runs]
same,"viability, T/C",compound 1 µM,42.3% (2×) and 46.1% and 41.8%
same,"viability, T/C",compound 3.16 µM,47.1% [middle of 4 runs]
same,"viability, T/C",compound 10 µM,19.6% [middle of 4 runs]
same,IC50,curve of compound,469 nM [middle of 4 runs]
CCC(CC)c1cc(NC2CCC(N)C2)n2nccc2n1 (stereo not given),"viability, T/C",compound 0.0316 µM,106% [middle of 4 runs]
same,"viability, T/C",compound 0.1 µM,99.2% [middle of 4 runs]
same,"viability, T/C",compound 0.316 µM,115% and 105% (2×) and 109%
same,"viability, T/C",compound 3.16 µM,4.93% [middle of 4 runs]
same,"viability, T/C",compound 10 µM,8.61% [middle of 4 runs]
same,IC50,curve of compound,1.96 µM [middle of 4 runs]
C[C@@H](NC(=O)c1ncnc(N)c1Cl)c1ncc(C(=O)Nc2cc(C(F)(F)F)c(Cl)cn2)s1,"viability, T/C",compound 0.0316 µM,114% (3×) and 115%
same,"viability, T/C",compound 0.1 µM,104% [middle of 4 runs]
same,"viability, T/C",compound 0.316 µM,109% [middle of 4 runs]
same,"viability, T/C",compound 1 µM,93.4% and 96.5% (2×) and 92.5%
same,"viability, T/C",compound 3.16 µM,108% [middle of 4 runs]
same,"viability, T/C",compound 10 µM,82.4% [middle of 4 runs]
same,IC50,curve of compound,> 10000 nM
Cc1nc(N2CCC3(CC2)COC(C)C3N)c(CO)nc1Sc1ccnc(N)c1Cl (stereo not given),"viability, T/C",compound 0.0316 µM,102% [middle of 4 runs]
same,"viability, T/C",compound 0.1 µM,93.5% [middle of 4 runs]
same,"viability, T/C",compound 0.316 µM,88.9% [middle of 4 runs]
same,"viability, T/C",compound 1 µM,72.8% [middle of 4 runs]
same,IC50,curve of compound,> 10000 nM
NC1c2ccccc2OC12CCN(c1cnc3c(N4CCCc5ncccc54)n[nH]c3n1)CC2 (stereo not given),"viability, T/C",compound 0.0316 µM,92.8% [middle of 4 runs]
same,"viability, T/C",compound 0.1 µM,82.1% [middle of 4 runs]
same,"viability, T/C",compound 1 µM,70.1% [middle of 4 runs]
same,IC50,curve of compound,> 10000 nM
C=CC(=O)Nc1cc(Nc2nccc(-c3cn(C)c4ccccc34)n2)c(OC)cc1N(C)CCN(C)C + C#Cc1c(F)ccc2cc(O)cc(-c3ncc4c(N5CC6CCC(C5)N6)nc(OCC56CCCN5CC(F)C6)nc4c3F)c12,IC50,"curve of first compound, second compound 0.0316 µM",> 1000 nM
same,IC50,"curve of first compound, second compound 0.1 µM",> 1000 nM
same,IC50,"curve of first compound, second compound 0.316 µM",> 1000 nM
same,IC50,"curve of first compound, second compound 1 µM",> 1000 nM
same,IC50,"curve of first compound, second compound 3.16 µM",> 1000 nM
same,IC50,"curve of first compound, second compound 10 µM",< 3.16 nM
same,"viability, T/C","second compound 0.0316 µM, first compound 0.00316 µM",103%
same,"viability, T/C","second compound 0.0316 µM, first compound 0.01 µM",101%
same,"viability, T/C","second compound 0.0316 µM, first compound 0.0316 µM",106%
same,"viability, T/C","second compound 0.0316 µM, first compound 0.1 µM",104%
same,"viability, T/C","second compound 0.0316 µM, first compound 0.316 µM",101%
same,"viability, T/C","second compound 0.0316 µM, first compound 1 µM",89.7%
same,"viability, T/C","second compound 0.1 µM, first compound 0.00316 µM",97%
same,"viability, T/C","second compound 0.1 µM, first compound 0.01 µM",95.8%
same,"viability, T/C","second compound 0.1 µM, first compound 0.0316 µM",95.8%
same,"viability, T/C","second compound 0.1 µM, first compound 0.1 µM",108%
same,"viability, T/C","second compound 0.1 µM, first compound 0.316 µM",108%
same,"viability, T/C","second compound 0.1 µM, first compound 1 µM",96.2%
same,"viability, T/C","second compound 0.316 µM, first compound 0.00316 µM",107%
same,"viability, T/C","second compound 0.316 µM, first compound 0.01 µM",97.3%
same,"viability, T/C","second compound 0.316 µM, first compound 0.0316 µM",96.1%
same,"viability, T/C","second compound 0.316 µM, first compound 0.1 µM",103%
same,"viability, T/C","second compound 0.316 µM, first compound 0.316 µM",101%
same,"viability, T/C","second compound 0.316 µM, first compound 1 µM",85.5%
same,"viability, T/C","second compound 1 µM, first compound 0.00316 µM",106%
same,"viability, T/C","second compound 1 µM, first compound 0.01 µM",98.9%
same,"viability, T/C","second compound 1 µM, first compound 0.0316 µM",100%
same,"viability, T/C","second compound 1 µM, first compound 0.1 µM",97.3%
same,"viability, T/C","second compound 1 µM, first compound 0.316 µM",83.3%
same,"viability, T/C","second compound 1 µM, first compound 1 µM",74.6%
same,"viability, T/C","second compound 3.16 µM, first compound 0.00316 µM",78%
same,"viability, T/C","second compound 3.16 µM, first compound 0.01 µM",83.6%
same,"viability, T/C","second compound 3.16 µM, first compound 0.0316 µM",72.4%
same,"viability, T/C","second compound 3.16 µM, first compound 0.1 µM",67.6%
same,"viability, T/C","second compound 3.16 µM, first compound 0.316 µM",63.3%
same,"viability, T/C","second compound 3.16 µM, first compound 1 µM",49.8%
same,"viability, T/C","second compound 10 µM, first compound 0.00316 µM",48%
same,"viability, T/C","second compound 10 µM, first compound 0.01 µM",43.7%
same,"viability, T/C","second compound 10 µM, first compound 0.0316 µM",37%
same,"viability, T/C","second compound 10 µM, first compound 0.1 µM",37.3%
same,"viability, T/C","second compound 10 µM, first compound 0.316 µM",28.6%
same,"viability, T/C","second compound 10 µM, first compound 1 µM",30.1%
